Experimental data taken from patent US20250163029A1, “PYRIDONE OR PYRIMIDONE DERIVATIVE AND APPLICATION THEREOF” (Medshine Discovery Inc., priority 2022, published 2025).
Where a name gives a salt, the structure may show the parent alone.

Assays:
[1] = system: novel coronavirus βCoV/KOR/KCDC03/2020 strain; assay: In vitro anti-novel coronavirus activity in Vero cells; assay type: cell-based, SARS-CoV-2; conditions: Severe acute respiratory syndrome coronavirus 2, Vero, 24 h
in vivo = assay: in vivo; design: species or system Sprague-Dawley strain rats; conditions: Sprague-Dawley, rat
Procedure: (§1) Objective of assay: The druggability of compounds was evaluated by measuring their pharmacokinetic properties in different animal species.
(§2) Assay Materials: C57BL6/J strain mice, Sprague-Dawley strain rats and beagle dogs.
(§3) The pharmacokinetic characteristics of the compound after intravenous and oral administration were assayed in animals using a standard protocol. In the assay, the candidate compound was prepared into a clear solution (intravenous injection) or a homogeneous suspension (oral administration) and administrated to the animal once. Whole blood samples were collected within 24 hours, and centrifuged at 3200 g for 10 minutes. The supernatant was separated to obtain a plasma sample. The blood concentration was quantitatively analyzed by LC-MS/MS analysis method, and pharmacokinetic parameters such as peak concentration, time to peak, clearance rate, half-life, and area under the drug-time curve were calculated.

[2] = Pharmacokinetic (PK) assay in mice; assay type: in vivo, C57BL6/J strain mice; conditions: C57BL6/J, plasma; for AUC: mouse
Procedure: as §1, §2, §3

plasma protein [3] = assay: Plasma protein binding rate (PPB), cynomolgus monkeys; assay type: in vitro ADME; conditions: Cynomolgus monkey plasma, 2 μM, 4 hours dialysis
Procedure: (§4) 597 μL of blank plasma from CD-1 mice, SD rats, beagle dogs, cynomolgus monkeys and humans were weighed, and the working solution of the assay compound or the working solution of warfarin was added, so that the final concentration of the assay compound and warfarin in the plasma sample was 2 μM. The samples were mixed thoroughly. The final concentration of DMSO as an organic phase was 0.5%; 50 μL of the assay compound and warfarin plasma samples were pipetted into a sample receiving plate, and the corresponding volume of blank plasma or buffer was immediately added, so that the final volume of each sample well was 100 μL, and the volume ratio of plasma:dialysis buffer was 1:1, and then the stop solution was added to these samples. The samples were used as the To sample for recovery and stability determination. The assay compound and warfarin plasma samples were added to the dosing end of each dialysis well, and blank dialysis buffer was added to the receiving end corresponding to the dialysis well. Then the dialysis plate was sealed with a gas permeable membrane and placed in a humidified 5% CO2 incubator, and incubated with shaking at 37° C. and 100 rpm for 4 hours. […] After protein precipitation, all samples were analyzed by LC/MS/MS, and the free rate (% Unbound) of the compound was calculated by the following formula: […]

plasma protein [4] = assay: Plasma protein binding rate (PPB), beagle dogs; assay type: in vitro ADME; conditions: 2 μM, 4 hours dialysis
Procedure: as §4

plasma protein [5] = assay: Plasma protein binding rate (PPB), CD-1 mice; assay type: in vitro ADME; conditions: 2 μM, 4 hours dialysis
Procedure: as §4

## Cn1cnc(Cc2cn(Cc3cc(F)c(F)cc3F)c(Nc3cc4cn(C)nc4cc3Cl)nc2=O)n1 [Compound 4 hydrochloride]
[1]
  EC50: 52 nM
In vivo; iv, 0.25 mg/kg
  Vd: 0.62 L/kg
  clearance: 4.1 mL/min/kg
  half-life: 2.2 h
In vivo; iv, 0.25 mg/kg, AUC
  AUC: 2.4 µM·h
In vivo; iv, 0.25 mg/kg, AUCfree
  AUC: 0.11 µM·h
In vivo; po, 0.5 mg/kg
  Cmax: 0.53 µM
  Tmax: 2 h
  bioavailability: 103%
  half-life: 3.4 h
In vivo; po, 0.5 mg/kg, AUC
  AUC: 4.8 µM·h
In vivo; po, 0.5 mg/kg, AUCfree
  AUC: 0.22 µM·h
[2]; iv, 1 mg/kg, IV, 1 mpk, read-out: AUC
  AUC: 32.8 µM·h
[2]; iv, 1 mg/kg, IV, 1 mpk, read-out: AUCfree
  AUC: 0.92 µM·h
[2]; po, 5 mg/kg, PO, 5 mpk, read-out: AUC
  AUC: 145 µM·h
[2]; po, 5 mg/kg, PO, 5 mpk, read-out: AUCfree
  AUC: 4.1 µM·h
[2]; 1 mg/kg, Mouse, IV, 1 mpk
  Vd: 0.23 L/kg
  clearance: 0.98 mL/min/kg
  half-life: 2.6 h
[2]; 5 mg/kg, Mouse, PO, 5 mpk
  Cmax: 31 µM
  Tmax: 0.75 h
  bioavailability: 88%
  half-life: 2.7 h
Plasma protein [3]
  PPB_Unbound (%): 18.8%
Plasma protein [4]
  PPB_Unbound (%): 23.9%
Plasma protein [5]
  PPB_Unbound (%): 2.8%
